The values below come from patent US8884097B1, “Method to condition an invertebrate to detect a concentration range of a chemical compound” (The United States of America as represented by the …, priority 2011, dated 2014).

Entries after “also recorded” stand apart in the source; their conditions may differ.

Assay [1] deals with Microplitis croceipes. As to the kind of experiment: Conditioned food-searching response of wasps to individual odor concentrations. Format: in vivo. As for the experimental part:
Female wasps were conditioned to a 30 μl solution of indole (Spectrum Chemical MFG CORP., Gardena, Calif.) dissolved in dichloromethane at either 100 μg/ml or 1 μg/ml. The solvent was allowed to evaporate for one min before the assay. The conditioning arena consisted of a 9 cm d, 1.5 cm h metal ring covered with aluminum foil that was placed inside a glass petri dish (10 cm d and 1 cm h) containing the compound-laden filter paper (2.5 cm d). A small (4 mm^2) piece of filter paper laden with the sugar water (1 molar sucrose solution) was placed at the center of the metal ring covered with aluminum foil. A total of 9 holes (ca 1 mm d) were punctured around the tissue paper so that diffusing volatiles could be perceived as they fed on the sugar water. Wasps were allowed to feed for 10 s three times with 30 s between feedings. All conditioning and testing was done under a chemical fume hood. The conditioning arena was replaced with fresh materials after every 5 females (ca 10-15 min). Females were placed in a Plexiglas cage with water for 2 hrs before testing. A total of 20 females were conditioned per day over 2 days.
All test solutions were allowed to evaporate for 1 minute before being presented to the wasps. The test arena was the same as the conditioning arena except that only a single (ca 1 mm d) hole was punctured at the center of the aluminum foil covered metal ring. Wasps were placed close to the hole using a transfer vial. Measured were food-specific behaviors (Wäckers et al., 2002) which included intense substrate antennation with frequent tight turning, a distinct lowering of the head for food searching and attempts to enter the hole. Responses parameters included a recordation of both the number of turns and overall duration of the food searching. Each female was presented a single odor concentration. A total of 20 females (10 to high and 10 to low concentrations) were tested per day over 2 days. Kruskal-Wallis non-parametric ANOVA was used to test the effect of concentration on wasp responses (StatSoft, Inc. 2003).
The arena and procedure for testing were as described in Example 1. However, the wasps were conditioned via positive food conditioning of sugar-water to indole at 1 μg/ml. Additionally, the same wasp was also negatively food conditioned to 100 μg/ml of indole with water. Each female was test with a single indole concentration at either 100 μg/ml of indole or at 1 μg/ml. A total of 20 females (10 to high and 10 to low concentrations) were tested per day over 2 days.
The arena and procedure for testing were as described in Example 1. However, the wasps were conditioned via positive food conditioning of sugar-water to 30 μl of conditioning solution of skatole dissolved in dichloromethane at either 0.001 μg/ml, 0.01 μg/ml, 0.1 μg/ml, 1 μg/ml, 10 μg/ml, or 100 μg/ml. A 1 molar sucrose solution was used as the unconditioned stimulus (reward).

Assay [2] relates to Microplitis croceipes. The description is as above. Format: in vivo. To be noted: positively conditioned to 100 μg/ml and 1000 μg/ml, tested at 1000 μg/ml.
Setting [3] is: conditioned to 0.1 μg/ml, tested at 0.1 μg/ml.
Where [4] appears, read: conditioned to 0.1 μg/ml, tested at 1 μg/ml.
Where [5] appears, read: conditioned to 1 μg/ml, tested at 0.1 μg/ml.
The mark [6] stands for this setting: conditioned to 1 μg/ml, tested at 1 μg/ml.
The mark [7] stands for this setting: conditioned to 1 μg/ml, tested at 10 μg/ml.
Where [8] appears, read: conditioned to 10 μg/ml, tested at 1 μg/ml.
Where [9] appears, read: conditioned to 10 μg/ml, tested at 10 μg/ml.
[10] abbreviates: conditioned to 100 μg/ml, tested at 100 μg/ml.

For `C[C@]12CCC(=O)C[C@@H]1CC[C@@H]1[C@@H]2CC[C@]2(C)C=CC[C@@H]12` [androstenone, 5α-androst-16-en-3-one], the “response of conditioned wasps (food searching time and turns)” value (from here on “response … (food searching time and turns)”) in assay [1] (conditioned to 0.01 μg/ml, tested at 0.01 μg/ml) is recorded as “responded to the conditioning concentration”; in assay [1] (conditioned to 0.1 μg/ml, tested at 0.01 μg/ml), “only responded to the conditioning concentration”; in assay [1] (setting [3]) it was “only responded to the conditioning concentration”; in assay [1] (setting [4]), “only responded to the conditioning concentration”; in assay [1] (setting [5]), “only responded to the conditioning concentration”; in assay [1] (setting [6]) it was “only responded to the conditioning concentration”. Also, the “response … (food searching time and turns)” value in assay [1] (setting [7]) is recorded as “only responded to the conditioning concentration”; in assay [1] (setting [8]), “did not respond to either concentration”; in assay [1] (setting [9]), “did not respond to either concentration”. For the same molecule, the “conditioned response to the individual volatile” value in assay [1] (single odor experiment) is reported as “weak”.
Consider `c1ccc2[nH]ccc2c1` [indole], for which the “response … (food searching time and turns)” value in assay [1] (setting [6]) was “responded to the conditioned concentration”; in assay [1] (conditioned to 1 μg/ml, tested at 100 μg/ml), “responded”; in assay [1] (conditioned to 100 μg/ml, tested at 1 μg/ml), “did not respond”; in assay [1] (setting [10]), “responded to the conditioned concentration”; in assay [1] (positively conditioned to 1 μg/ml and negatively conditioned to 100 μg/ml, tested at 1 μg/ml) it was “responded to the conditioned concentration”; in assay [1] (positively conditioned to 1 μg/ml and negatively conditioned to 100 μg/ml, tested at 100 μg/ml) it was “did not respond to the negatively conditioned concentration”. In assay [1] (single odor experiment), the “conditioned response to the individual volatile” value is on record as “respond reliably”. Moreover, the “duration of the conditioned response compared with skatole” value in assay [1] (single odor experiment) is given as “more prolonged response”.
Take `C=CC(C)=CCC=C(C)C` [ocimene, reference compound]: the “response of conditioned wasps to a non-conditioned odor” value in assay [1] (single odor experiment, non-conditioned floral odor) is “do not respond”.
Turning to `Cc1c[nH]c2ccccc12` [skatole, 3-methyl-indole], the “response … (food searching time and turns)” value in assay [1] (setting [3]) is reported as “no responses”; in assay [1] (setting [4]), “no responses”; in assay [1] (setting [5]) it was “responded to both concentrations; also recorded: able to detect it”; in assay [1] (setting [6]), “responded to both concentrations”; in assay [1] (setting [7]), “only responded to the conditioning concentration”; in assay [1] (setting [8]), “responded to both skatole concentrations”. The “response … (food searching time and turns)” value was “responded to both skatole concentrations” in assay [1] (setting [9]); “only responded to the conditioning concentration” in assay [1] (conditioned to 10 μg/ml, tested at 100 μg/ml); “responded to both skatole concentrations” in assay [1] (conditioned to 100 μg/ml, tested at 10 μg/ml); “responded to both skatole concentrations” in assay [1] (setting [10]); “only responded to the conditioning concentration” in assay [1] (conditioned to 100 μg/ml, tested at 1 mg/ml); “responded” in assay [1] (positively conditioned to 100 μg/ml and 1000 μg/ml, tested at 10 μg/ml). Further, the “response … (food searching time and turns)” value is on record as “responded to both of the conditioning concentrations” in assay [1] (positively conditioned to 100 μg/ml and 1000 μg/ml, tested at 100 μg/ml); “responded to both of the conditioning concentrations” in assay [2]. Besides, the “conditioned response to the individual volatile” value in assay [1] (single odor experiment) is reported as “respond reliably”.
